According to ChEMBL document CHEMBL5291721, “A preclinical secondary pharmacology resource illuminates target-adverse drug reaction associations of marketed drugs” (Nat Commun, 2023):

Columns and labels:
Adenosine receptor A1 = biological target: T1, Adenosine receptor A1 (Homo sapiens, UniProt P30542)
T1 sequence (P30542 whole entry): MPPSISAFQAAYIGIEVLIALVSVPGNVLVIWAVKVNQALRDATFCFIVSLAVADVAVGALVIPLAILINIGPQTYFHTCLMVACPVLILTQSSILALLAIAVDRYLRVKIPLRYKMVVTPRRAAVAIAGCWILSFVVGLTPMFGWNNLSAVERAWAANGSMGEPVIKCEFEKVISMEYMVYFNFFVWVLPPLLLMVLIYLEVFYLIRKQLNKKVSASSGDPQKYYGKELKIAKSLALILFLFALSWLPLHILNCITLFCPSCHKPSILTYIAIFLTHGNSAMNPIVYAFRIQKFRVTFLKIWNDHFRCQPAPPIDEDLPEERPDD

Adenosine receptor A3 = biological target: T2, Adenosine receptor A3 (Homo sapiens, UniProt P0DMS8)
T2 sequence (P0DMS8 whole entry): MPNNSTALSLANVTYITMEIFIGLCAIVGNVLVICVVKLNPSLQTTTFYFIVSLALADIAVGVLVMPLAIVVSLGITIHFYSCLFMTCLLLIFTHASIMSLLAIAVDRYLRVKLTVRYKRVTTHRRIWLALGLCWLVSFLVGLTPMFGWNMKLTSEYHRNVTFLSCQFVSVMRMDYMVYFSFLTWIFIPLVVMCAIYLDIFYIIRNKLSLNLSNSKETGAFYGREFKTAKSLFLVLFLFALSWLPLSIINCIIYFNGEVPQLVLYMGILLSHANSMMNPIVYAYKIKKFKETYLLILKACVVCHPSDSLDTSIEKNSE

[1] = biological target: T3, Alpha-1A adrenergic receptor (Homo sapiens, UniProt P35348); assay type: functional, cell-based
T3 sequence (P35348 whole entry): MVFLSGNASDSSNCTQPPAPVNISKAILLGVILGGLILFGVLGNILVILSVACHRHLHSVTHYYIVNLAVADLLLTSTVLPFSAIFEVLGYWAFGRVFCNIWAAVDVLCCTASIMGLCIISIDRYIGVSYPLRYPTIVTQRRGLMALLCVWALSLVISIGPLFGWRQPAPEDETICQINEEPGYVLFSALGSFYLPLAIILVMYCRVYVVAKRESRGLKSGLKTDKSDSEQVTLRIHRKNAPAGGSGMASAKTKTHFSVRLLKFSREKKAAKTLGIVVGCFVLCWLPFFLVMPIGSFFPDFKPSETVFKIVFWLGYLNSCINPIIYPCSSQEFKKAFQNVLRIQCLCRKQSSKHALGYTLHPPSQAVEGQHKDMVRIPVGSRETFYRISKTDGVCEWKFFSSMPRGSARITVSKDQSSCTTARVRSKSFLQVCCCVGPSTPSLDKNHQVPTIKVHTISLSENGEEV

[2] = biological target: T4, Alpha-2A adrenergic receptor (Homo sapiens, UniProt P08913); assay type: functional, cell-based
T4 sequence (P08913 whole entry): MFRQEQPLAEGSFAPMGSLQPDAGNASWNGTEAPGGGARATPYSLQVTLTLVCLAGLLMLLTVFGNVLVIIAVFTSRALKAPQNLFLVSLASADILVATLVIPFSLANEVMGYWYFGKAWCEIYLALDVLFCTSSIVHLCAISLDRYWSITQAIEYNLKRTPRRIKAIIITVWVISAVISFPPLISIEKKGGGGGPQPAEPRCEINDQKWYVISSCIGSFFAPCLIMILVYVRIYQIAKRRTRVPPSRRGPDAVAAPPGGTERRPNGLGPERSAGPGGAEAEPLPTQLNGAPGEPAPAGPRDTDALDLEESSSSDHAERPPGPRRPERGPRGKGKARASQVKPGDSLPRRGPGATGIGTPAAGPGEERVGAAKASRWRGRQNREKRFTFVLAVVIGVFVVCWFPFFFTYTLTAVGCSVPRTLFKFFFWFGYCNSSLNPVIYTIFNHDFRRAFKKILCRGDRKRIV

[3] = biological target: Beta-1 adrenergic receptor (Homo sapiens, UniProt P08588); assay type: functional
[4] = biological target: T5, Type-1 angiotensin II receptor (Homo sapiens, UniProt P30556)
T5 sequence (P30556 whole entry): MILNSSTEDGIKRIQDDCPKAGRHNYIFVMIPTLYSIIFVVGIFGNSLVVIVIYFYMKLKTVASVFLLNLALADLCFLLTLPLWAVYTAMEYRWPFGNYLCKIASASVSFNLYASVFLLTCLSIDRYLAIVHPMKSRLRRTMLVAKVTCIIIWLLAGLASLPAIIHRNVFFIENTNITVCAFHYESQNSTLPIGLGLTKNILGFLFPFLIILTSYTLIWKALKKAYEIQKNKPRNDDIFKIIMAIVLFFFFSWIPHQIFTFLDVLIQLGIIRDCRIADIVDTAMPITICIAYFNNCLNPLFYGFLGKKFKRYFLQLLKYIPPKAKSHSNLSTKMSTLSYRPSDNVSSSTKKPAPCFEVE

Vasopressin V2 receptor = Vasopressin V2 receptor (Homo sapiens, UniProt P30518)
[5] = biological target: T6, Muscarinic acetylcholine receptor M2 (Homo sapiens, UniProt P08172); assay type: functional, cell-based
T6 sequence (P08172 whole entry): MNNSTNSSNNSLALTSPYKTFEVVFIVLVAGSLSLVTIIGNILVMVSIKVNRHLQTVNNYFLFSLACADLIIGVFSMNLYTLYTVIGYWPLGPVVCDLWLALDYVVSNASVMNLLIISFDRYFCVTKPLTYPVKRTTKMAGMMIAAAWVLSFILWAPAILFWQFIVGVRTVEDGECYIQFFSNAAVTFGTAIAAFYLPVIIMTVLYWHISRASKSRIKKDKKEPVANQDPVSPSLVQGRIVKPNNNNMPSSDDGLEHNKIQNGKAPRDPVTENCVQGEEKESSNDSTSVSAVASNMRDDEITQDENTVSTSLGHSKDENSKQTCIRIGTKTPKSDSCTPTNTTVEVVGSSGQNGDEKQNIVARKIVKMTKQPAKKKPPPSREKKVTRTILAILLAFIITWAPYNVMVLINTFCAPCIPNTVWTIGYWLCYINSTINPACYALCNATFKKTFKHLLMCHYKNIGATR

[6] = biological target: Neuronal acetylcholine receptor subunit alpha-4 (Homo sapiens, UniProt P43681)
[7] = biological target: Gamma-aminobutyric acid receptor subunit alpha-1 (Rattus norvegicus, UniProt P62813); assay type: functional
[8] = biological target: Glutamate receptor ionotropic, NMDA 1 (Rattus norvegicus, UniProt P35439)
Histamine H2 receptor = Histamine H2 receptor (Homo sapiens, UniProt P25021); assay type: functional, cell-based
Melanocortin receptor 3 = Melanocortin receptor 3 (Homo sapiens, UniProt P41968)
D(3) dopamine receptor = D(3) dopamine receptor (Homo sapiens, UniProt P35462)

Measured: AC50
Also: assay procedure not described here.

Chain of D(3) dopamine receptor (P35462 whole entry): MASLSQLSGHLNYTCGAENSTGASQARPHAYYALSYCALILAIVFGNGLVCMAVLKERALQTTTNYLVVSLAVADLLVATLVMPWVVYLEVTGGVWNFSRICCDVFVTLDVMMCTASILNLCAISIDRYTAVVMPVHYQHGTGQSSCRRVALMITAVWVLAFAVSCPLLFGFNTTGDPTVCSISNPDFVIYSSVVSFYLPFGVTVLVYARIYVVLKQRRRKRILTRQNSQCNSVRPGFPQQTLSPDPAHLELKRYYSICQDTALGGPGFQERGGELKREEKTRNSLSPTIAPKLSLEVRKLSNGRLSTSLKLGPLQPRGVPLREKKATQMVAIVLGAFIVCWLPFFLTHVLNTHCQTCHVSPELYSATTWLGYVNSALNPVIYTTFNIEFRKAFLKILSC
Chain of Gamma-aminobutyric acid receptor subunit alpha-1 (P62813 whole entry): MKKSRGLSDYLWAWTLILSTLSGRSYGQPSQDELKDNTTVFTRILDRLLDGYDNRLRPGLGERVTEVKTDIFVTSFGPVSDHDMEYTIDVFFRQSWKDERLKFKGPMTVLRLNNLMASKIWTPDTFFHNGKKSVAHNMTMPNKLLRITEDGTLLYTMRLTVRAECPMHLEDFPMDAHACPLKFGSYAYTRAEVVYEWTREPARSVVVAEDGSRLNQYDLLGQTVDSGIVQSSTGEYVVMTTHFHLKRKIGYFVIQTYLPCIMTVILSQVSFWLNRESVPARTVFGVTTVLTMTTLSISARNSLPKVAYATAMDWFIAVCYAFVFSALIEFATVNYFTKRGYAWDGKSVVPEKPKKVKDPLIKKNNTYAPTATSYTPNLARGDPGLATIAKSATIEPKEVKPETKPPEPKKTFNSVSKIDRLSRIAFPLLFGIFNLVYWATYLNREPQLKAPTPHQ
Chain of Vasopressin V2 receptor (P30518 whole entry): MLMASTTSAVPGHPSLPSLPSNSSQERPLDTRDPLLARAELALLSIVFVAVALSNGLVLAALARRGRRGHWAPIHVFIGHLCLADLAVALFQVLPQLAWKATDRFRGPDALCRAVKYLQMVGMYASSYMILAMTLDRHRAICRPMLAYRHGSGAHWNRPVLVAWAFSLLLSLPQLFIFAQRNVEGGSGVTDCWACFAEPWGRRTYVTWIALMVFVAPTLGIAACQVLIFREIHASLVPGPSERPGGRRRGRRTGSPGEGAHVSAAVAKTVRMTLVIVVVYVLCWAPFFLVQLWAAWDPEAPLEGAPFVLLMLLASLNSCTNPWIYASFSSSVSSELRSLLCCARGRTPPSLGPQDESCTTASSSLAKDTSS
Chain of Beta-1 adrenergic receptor (P08588 whole entry): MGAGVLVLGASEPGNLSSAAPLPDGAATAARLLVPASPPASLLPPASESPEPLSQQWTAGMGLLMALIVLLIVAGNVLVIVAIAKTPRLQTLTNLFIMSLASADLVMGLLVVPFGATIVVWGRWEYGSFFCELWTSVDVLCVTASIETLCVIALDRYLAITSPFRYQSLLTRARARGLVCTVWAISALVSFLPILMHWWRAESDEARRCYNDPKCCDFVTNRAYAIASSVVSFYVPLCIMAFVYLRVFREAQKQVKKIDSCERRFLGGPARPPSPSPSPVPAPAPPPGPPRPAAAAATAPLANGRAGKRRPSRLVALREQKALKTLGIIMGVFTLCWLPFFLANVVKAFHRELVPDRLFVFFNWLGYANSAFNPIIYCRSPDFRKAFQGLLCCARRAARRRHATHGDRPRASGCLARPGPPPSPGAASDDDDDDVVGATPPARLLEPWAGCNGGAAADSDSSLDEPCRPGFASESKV
Chain of Melanocortin receptor 3 (P41968 whole entry): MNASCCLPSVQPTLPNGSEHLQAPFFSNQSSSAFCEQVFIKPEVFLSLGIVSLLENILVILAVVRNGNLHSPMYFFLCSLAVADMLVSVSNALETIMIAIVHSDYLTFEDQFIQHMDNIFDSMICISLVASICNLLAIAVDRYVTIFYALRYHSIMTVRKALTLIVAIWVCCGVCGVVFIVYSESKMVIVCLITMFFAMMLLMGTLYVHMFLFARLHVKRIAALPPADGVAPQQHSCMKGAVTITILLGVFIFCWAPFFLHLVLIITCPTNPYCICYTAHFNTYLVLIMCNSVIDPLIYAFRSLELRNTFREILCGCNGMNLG
Chain of Neuronal acetylcholine receptor subunit alpha-4 (P43681 whole entry): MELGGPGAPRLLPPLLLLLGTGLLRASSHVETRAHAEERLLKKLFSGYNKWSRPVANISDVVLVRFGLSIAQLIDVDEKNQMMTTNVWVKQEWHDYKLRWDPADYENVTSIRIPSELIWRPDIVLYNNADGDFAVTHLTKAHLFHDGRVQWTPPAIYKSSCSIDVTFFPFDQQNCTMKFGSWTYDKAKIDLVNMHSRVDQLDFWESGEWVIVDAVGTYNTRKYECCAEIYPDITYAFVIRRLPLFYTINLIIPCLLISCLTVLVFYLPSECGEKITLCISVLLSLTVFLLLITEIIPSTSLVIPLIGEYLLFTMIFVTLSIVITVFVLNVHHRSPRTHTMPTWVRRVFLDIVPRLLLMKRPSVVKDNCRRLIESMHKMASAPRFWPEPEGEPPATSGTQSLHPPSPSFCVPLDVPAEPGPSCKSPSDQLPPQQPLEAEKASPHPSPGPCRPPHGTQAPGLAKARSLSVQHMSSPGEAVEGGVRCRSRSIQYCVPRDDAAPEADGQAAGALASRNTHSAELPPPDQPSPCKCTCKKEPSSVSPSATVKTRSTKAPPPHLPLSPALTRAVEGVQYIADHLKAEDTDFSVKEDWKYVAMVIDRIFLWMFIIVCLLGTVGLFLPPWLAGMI
Chain of Histamine H2 receptor (P25021 whole entry): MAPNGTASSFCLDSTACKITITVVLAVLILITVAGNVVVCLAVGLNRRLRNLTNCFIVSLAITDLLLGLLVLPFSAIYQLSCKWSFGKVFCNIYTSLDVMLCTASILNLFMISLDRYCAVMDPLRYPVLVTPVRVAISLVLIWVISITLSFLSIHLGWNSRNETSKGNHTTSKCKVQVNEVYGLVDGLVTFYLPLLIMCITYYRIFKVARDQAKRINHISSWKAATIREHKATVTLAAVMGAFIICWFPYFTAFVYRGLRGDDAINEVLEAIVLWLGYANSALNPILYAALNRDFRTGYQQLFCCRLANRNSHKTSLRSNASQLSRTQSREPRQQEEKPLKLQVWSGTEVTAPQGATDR

CC(c1cc2ccccc2s1)N(O)C(N)=O (centres undefined) [ZILEUTON]
> 30 µM: [1] | D(3) dopamine receptor
> 10 µM: all other assays above
